In experiment [1] the target is Tyrosine-protein kinase Lck (Homo sapiens, UniProt P06239). As to the kind of experiment: Inhibition of LCK.
Experiment [2] has as its target Tyrosine-protein kinase HCK (Homo sapiens, UniProt P08631). As to the kind of experiment: Inhibition of HCK.
The target in experiment [3] is Proto-oncogene tyrosine-protein kinase Src (Homo sapiens, UniProt P12931). Description: Inhibition of SRC.

The source of these data is ChEMBL document CHEMBL1154389, “Discovery of pyrimidine benzimidazoles as Src-family selective Lck inhibitors. Part II” (Bioorg Med Chem Lett, 2009).

pIC50: −log10 of the molar value.

As usually defined, the pIC50 is the IC50 on a negative log10 scale, so that one unit is a factor of ten. A lower pIC50 goes with a high IC50.

Tyrosine-protein kinase Lck, sequence (P06239 whole entry): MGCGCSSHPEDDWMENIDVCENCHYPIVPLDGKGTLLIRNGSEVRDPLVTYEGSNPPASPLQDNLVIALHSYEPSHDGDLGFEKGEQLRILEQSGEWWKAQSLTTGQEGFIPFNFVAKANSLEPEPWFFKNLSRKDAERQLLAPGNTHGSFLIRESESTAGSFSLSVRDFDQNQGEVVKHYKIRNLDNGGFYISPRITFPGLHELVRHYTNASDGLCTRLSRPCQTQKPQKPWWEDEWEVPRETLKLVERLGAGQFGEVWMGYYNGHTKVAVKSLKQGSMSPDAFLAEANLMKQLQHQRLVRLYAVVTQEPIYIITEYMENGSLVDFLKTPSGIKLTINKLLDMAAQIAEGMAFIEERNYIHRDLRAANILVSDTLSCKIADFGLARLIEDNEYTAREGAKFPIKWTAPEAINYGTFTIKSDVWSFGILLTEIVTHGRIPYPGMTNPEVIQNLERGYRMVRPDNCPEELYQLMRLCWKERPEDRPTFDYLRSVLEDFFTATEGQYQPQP
Tyrosine-protein kinase HCK, sequence (P08631 whole entry): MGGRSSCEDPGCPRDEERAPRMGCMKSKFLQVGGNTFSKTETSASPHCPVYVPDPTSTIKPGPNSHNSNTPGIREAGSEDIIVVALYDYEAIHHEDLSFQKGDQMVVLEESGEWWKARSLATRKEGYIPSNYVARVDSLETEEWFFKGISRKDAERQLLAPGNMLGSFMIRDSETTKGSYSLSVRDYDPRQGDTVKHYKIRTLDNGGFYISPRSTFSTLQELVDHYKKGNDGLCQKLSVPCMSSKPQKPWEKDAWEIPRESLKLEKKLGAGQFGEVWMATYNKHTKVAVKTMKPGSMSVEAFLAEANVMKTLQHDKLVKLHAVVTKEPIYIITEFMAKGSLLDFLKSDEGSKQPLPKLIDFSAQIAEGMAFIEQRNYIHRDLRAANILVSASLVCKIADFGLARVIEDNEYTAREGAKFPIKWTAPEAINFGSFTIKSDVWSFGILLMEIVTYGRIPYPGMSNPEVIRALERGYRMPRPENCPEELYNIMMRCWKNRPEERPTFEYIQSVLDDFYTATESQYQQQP
Proto-oncogene tyrosine-protein kinase Src, sequence (P12931 2-536 limits assumed): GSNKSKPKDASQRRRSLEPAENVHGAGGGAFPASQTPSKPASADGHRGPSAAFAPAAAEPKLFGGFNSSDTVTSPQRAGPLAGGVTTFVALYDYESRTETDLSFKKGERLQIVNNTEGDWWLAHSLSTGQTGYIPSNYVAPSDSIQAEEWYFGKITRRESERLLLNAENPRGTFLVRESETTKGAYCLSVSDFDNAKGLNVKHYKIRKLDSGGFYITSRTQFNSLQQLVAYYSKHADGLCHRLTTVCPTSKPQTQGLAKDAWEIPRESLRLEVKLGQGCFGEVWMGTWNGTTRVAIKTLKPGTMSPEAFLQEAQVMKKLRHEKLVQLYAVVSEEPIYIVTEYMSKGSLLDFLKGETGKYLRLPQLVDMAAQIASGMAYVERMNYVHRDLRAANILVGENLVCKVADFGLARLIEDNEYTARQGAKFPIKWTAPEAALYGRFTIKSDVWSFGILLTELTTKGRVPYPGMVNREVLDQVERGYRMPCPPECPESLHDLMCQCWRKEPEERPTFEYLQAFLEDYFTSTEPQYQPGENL

With `Cc1ccc(NC(=O)c2cc(CN3CCN(C)CC3)n(C(C)(C)C)n2)cc1Nc1nc2ccccc2n1-c1cc(N)ncn1`, the results for the pIC50 in experiment [1], in experiment [2] and in experiment [3] were 8.10, 7.96 and 6.75, respectively.
Take `Cc1cn(-c2cc(NC(=O)c3ccc(C)c(Nc4nc5ccccc5n4-c4cc(N)ncn4)c3)cc(C(F)(F)F)c2)cn1`: the figures for the pIC50 in experiment [1] and in experiment [2] were 6.62 and 6.04, respectively.
Regarding `Cc1cccc(NC(=O)c2ccc(C)c(Nc3nc4ccccc4n3-c3cc(NCCCCN(C)C)ncn3)c2)c1`, the pIC50 in experiment [1] was 7.66; in experiment [2] it was less than 5.60.
The corresponding values for `CCN(CC)CCCCNc1cc(-n2c(Nc3cc(C(=O)Nc4cccc(C)c4)ccc3C)nc3ccccc32)ncn1` are 7.70 and 5.74.
Regarding `Cc1cccc(NC(=O)c2ccc(C)c(Nc3nc4ccccc4n3-c3cc(NCCN4CCN(C)CC4)ncn3)c2)c1`, the pIC50 was 7.42 in experiment [1] and less than 5.60 in experiment [2].
The matching figures for `Cc1cccc(NC(=O)c2ccc(C)c(Nc3nc4ccccc4n3-c3cc(NCCCN4CCN(C)CC4)ncn3)c2)c1`: 7.72 and 5.73.
For the compound `Cc1ccc(C(=O)Nc2cccc(C(F)(F)F)c2)cc1Nc1nc2ccccc2n1-c1cc(NCCCCN(C)C)ncn1`, the pIC50 is 7.82 in experiment [1], 7.25 in experiment [2] and 6.31 in experiment [3].
On to `CCN(CC)CCCCNc1cc(-n2c(Nc3cc(C(=O)Nc4cccc(C(F)(F)F)c4)ccc3C)nc3ccccc32)ncn1`, for which the pIC50 in experiment [1] is 7.74; in experiment [2] it was 6.32; in experiment [3] it was 6.56.
The corresponding values for `Cc1ccc(C(=O)Nc2cccc(C(F)(F)F)c2)cc1Nc1nc2ccccc2n1-c1cc(NCCN2CCN(C)CC2)ncn1` are 7.96, 6.89 and 6.34.
On to `Cc1ccc(C(=O)Nc2cccc(C(F)(F)F)c2)cc1Nc1nc2ccccc2n1-c1cc(NCCCN2CCN(C)CC2)ncn1`, for which the pIC50 is 7.74 in experiment [1], 6.59 in experiment [2] and 6.31 in experiment [3].
Turning to `Cc1ccc(C(=O)Nc2cccc(C(F)(F)F)c2)cc1Nc1nc2ccccc2n1-c1cc(NCCC#N)ncn1`, the pIC50 in experiment [1] was 5.86; in experiment [2], less than 5.60.
On to `Cc1ccc(C(=O)Nc2cccc(C(F)(F)F)c2)cc1Nc1nc2ccccc2n1-c1ncnc(NCCCN2CCN(C)CC2)n1`, for which the values for the pIC50 in experiment [1] and in experiment [2] were 7.92 and 7.27, respectively.
Turning to `Cc1ccc(NC(=O)c2cc(OC3CCN(C)CC3)cc(C(F)(F)F)c2)cc1Nc1nc2ccccc2n1-c1cc(N)ncn1`, the pIC50 in experiment [1] was 7.62; in experiment [2], 7.57; in experiment [3] it was 6.63.
As to `CCN1CCN(Cc2ccc(C(=O)Nc3ccc(C)c(Nc4nc5ccccc5n4-c4cc(N)ncn4)c3)cc2Cl)CC1`, the pIC50 in experiment [1] was 8.40; in experiment [2], 8.05; in experiment [3] it was 7.49.
For the compound `Cc1ccc(NC(=O)c2cc(N3CCN(C)CC3)cc(C(F)(F)F)c2)cc1Nc1nc2ccccc2n1-c1cc(N)ncn1`, the pIC50 in experiment [1] was 7.96; in experiment [2], 7.70; in experiment [3], 6.89.
With `CCN1CCN(c2cc(C(=O)Nc3ccc(C)c(Nc4nc5ccccc5n4-c4cc(N)ncn4)c3)cc(C(F)(F)F)c2)CC1`, the figures for the pIC50 in experiment [1], in experiment [2] and in experiment [3] were 7.96, 7.80 and 7.15, respectively.
Take `Cc1ccc(NC(=O)c2cccc(C(F)(F)F)c2)cc1Nc1nc2ccccc2n1-c1cc(NCCCN)ncn1`: the pIC50 in experiment [1] was 7.64; in experiment [2] it was 5.71.
The corresponding values for `Cc1ccc(NC(=O)c2cccc(C(F)(F)F)c2)cc1Nc1nc2ccccc2n1-c1cc(NCCCCN)ncn1` are 7.89 and 6.46.
`CCN(CC)CCNc1cc(-n2c(Nc3cc(NC(=O)c4cccc(C(F)(F)F)c4)ccc3C)nc3ccccc32)ncn1`: the pIC50 was 6.95 in experiment [1], 6.42 in experiment [2] and less than 5.60 in experiment [3].
For the compound `Cc1ccc(NC(=O)c2cccc(C(F)(F)F)c2)cc1Nc1nc2ccccc2n1-c1cc(NCCCCN(C)C)ncn1`, the pIC50 in experiment [1] was 8.30; in experiment [2], 7.19; in experiment [3], 6.86.
On to `Cc1ccc(NC(=O)c2cccc(C(F)(F)F)c2)cc1Nc1nc2ccccc2n1-c1cc(NCCCC2COCCN2)ncn1` (stereo unspecified), for which the pIC50 was 7.59 in experiment [1], 7.31 in experiment [2] and 6.78 in experiment [3].
As for `Cc1ccc(NC(=O)c2cccc(C(F)(F)F)c2)cc1Nc1nc2ccccc2n1-c1cc(NCCC2CCCN2)ncn1` (stereo unspecified), the pIC50 was 7.42 in experiment [1], 6.09 in experiment [2] and less than 5.60 in experiment [3].
On to `Cc1ccc(NC(=O)c2cccc(C(F)(F)F)c2)cc1Nc1nc2ccccc2n1-c1cc(NC2CCN(C)CC2)ncn1`, for which the pIC50 in experiment [1] was 6.77; in experiment [2] it was less than 5.60; in experiment [3], less than 5.60.
Turning to `Cc1ccc(NC(=O)c2cccc(C(F)(F)F)c2)cc1Nc1nc2ccccc2n1-c1cc(NCCc2ccccn2)ncn1`, the negative-log IC50 (pIC50) in experiment [1] is 6.69; in experiment [2], 6.04; in experiment [3] it was 5.63.
Regarding `Cc1ccc(NC(=O)c2cccc(C(F)(F)F)c2)cc1Nc1nc2ccccc2n1-c1cc(N2CCOCC2)ncn1`, the pIC50 in experiment [1], in experiment [2] and in experiment [3] was less than 5.60 throughout.
As to `Cc1ccc(NC(=O)c2cccc(C(F)(F)F)c2)cc1Nc1nc2ccccc2n1-c1cc(NCCN2CCN(C)CC2)ncn1`, the pIC50 was 7.54 in experiment [1], 7.16 in experiment [2] and 6.52 in experiment [3].
For the compound `Cc1ccc(NC(=O)c2cccc(C(F)(F)F)c2)cc1Nc1nc2ccccc2n1-c1cc(NCCCN2CCN(C)CC2)ncn1`, the values for the pIC50 in experiment [1], in experiment [2] and in experiment [3] were 8.22, 7.51 and 6.89, respectively.
As to `Cc1ccc(C(=O)Nc2ccccc2)cc1Nc1nc2ccccc2n1-c1cc(N)ncn1`, the values for the negative logarithm of the IC50 (pIC50) in experiment [1] and in experiment [2] were 5.97 and less than 5.60, respectively.
For `Cc1ccc(NC(=O)c2cccc(Cl)c2)cc1Nc1nc2ccccc2n1-c1cc(N)ncn1`, the pIC50 in experiment [1] is 6.88; in experiment [2], 6.32; in experiment [3] it was 5.78.
`Cc1cc(NC(=O)c2ccc(C)c(Nc3nc4ccccc4n3-c3cc(N)ncn3)c2)ccn1`: the negative logarithm of the IC50 (pIC50) was 6.75 in experiment [1] and less than 5.60 in experiment [2].
Consider `Cc1ccc(NC(=O)c2cccc(C(F)(F)F)c2)cc1Nc1nc2ccccc2n1-c1cc(N)ncn1`, for which the pIC50 was 7.96 in experiment [1], 7.37 in experiment [2] and 6.35 in experiment [3].
Turning to `Cc1ccc(NC(=O)c2cc(Cl)cc(Cl)c2)cc1Nc1nc2ccccc2n1-c1cc(N)ncn1`, the figures for the pIC50 in experiment [1], in experiment [2] and in experiment [3] were 7.24, 6.92 and 6.28, respectively.
As for `Cc1ccc(C(=O)Nc2cccc(C(F)(F)F)c2)cc1Nc1nc2ccccc2n1-c1ncnc(N)c1C`, the figures for the pIC50 in experiment [1], in experiment [2] and in experiment [3] were 5.62, less than 5.60 and less than 5.60, respectively.
As for `Cc1cccc(C(=O)Nc2ccc(C)c(Nc3nc4ccccc4n3-c3cc(N)ncn3)c2)c1`, the pIC50 in experiment [1] is 7.15; in experiment [2], 6.61; in experiment [3], 5.81.
`Cc1ccc(NC(=O)c2ccncc2C(C)(C)C)cc1Nc1nc2ccccc2n1-c1cc(N)ncn1` showed a pIC50 in experiment [2] of 7.34.
For `Cc1ccc(C(=O)Nc2cccc(C(N)=O)c2)cc1Nc1nc2ccccc2n1-c1cc(N)ncn1`, the pIC50 in experiment [1] and in experiment [2] was less than 5.60 each time.
For the compound `COc1cccc(NC(=O)c2ccc(C)c(Nc3nc4ccccc4n3-c3cc(N)ncn3)c2)c1`, the results for the pIC50 in experiment [1] and in experiment [2] were 7.05 and less than 5.60, respectively.
As for `Cc1ccc(C(=O)Nc2cccc3cnccc23)cc1Nc1nc2ccccc2n1-c1cc(N)ncn1`, the pIC50 in experiment [1] was 6.21; in experiment [2], less than 5.60.
The matching figures for `Cc1ccc(NC(=O)c2ccncc2Cl)cc1Nc1nc2ccccc2n1-c1cc(N)ncn1`: 6.15 and less than 5.60.
Turning to `Cc1ccc(NC(=O)c2cc(C3CC3)n[nH]2)cc1Nc1nc2ccccc2n1-c1cc(N)ncn1`, the figures for the pIC50 in experiment [1], in experiment [2] and in experiment [3] were 6.92, 6.35 and 5.13, respectively.
As for `Cc1cccc(NC(=O)c2ccc(C)c(Nc3nc4ccccc4n3-c3cc(N)ncn3)c2)c1`, the pIC50 in experiment [1] is 7.28; in experiment [2], less than 5.60.
The corresponding values for `Cc1ccc(C(=O)Nc2cccc(C(C)C)c2)cc1Nc1nc2ccccc2n1-c1cc(N)ncn1` are 7.52 and 6.82.
The corresponding values for `Cc1ccc(C(=O)Nc2cccc(C(C)(C)C)c2)cc1Nc1nc2ccccc2n1-c1cc(N)ncn1` are 7.66 and 6.86.
For the compound `COc1cc(-n2c(Nc3cc(NC(=O)c4cccc(C(F)(F)F)c4)ccc3C)nc3ccccc32)ncn1`, the negative logarithm of the IC50 (pIC50) in experiment [1] is 5.69; in experiment [2], less than 5.60; in experiment [3] it was less than 5.60.
Turning to `Cc1ccc(C(=O)Nc2cccc(C(F)(F)F)c2)cc1Nc1nc2ccccc2n1-c1cc(N)ncn1`, the pIC50 in experiment [1] was 7.23; in experiment [2] it was less than 5.60.
As to `Cc1ccc(NC(=O)c2cccc(C(F)(F)F)c2)cc1Nc1nc2ccccc2n1-c1cc(NCCN)ncn1`, the pIC50 in experiment [1] is 6.64; in experiment [2], less than 5.60.
Regarding `Cc1ccc(NC(=O)c2cccc(C(F)(F)F)c2)cc1Nc1nc2ccccc2n1-c1cc(NCCO)ncn1`, the figures for the pIC50 in experiment [1], in experiment [2] and in experiment [3] were 7.57, 6.72 and 5.72, respectively.
On to `Cc1ccc(C(=O)Nc2cccc(Cl)c2)cc1Nc1nc2ccccc2n1-c1cc(N)ncn1`, for which the pIC50 in experiment [1] was 7.20; in experiment [2], less than 5.60.
Turning to `Cc1ccc(C(=O)Nc2cccc(OC(F)F)c2)cc1Nc1nc2ccccc2n1-c1cc(N)ncn1`, the pIC50 in experiment [1] was 7.77; in experiment [2], less than 5.60.
Regarding `Cc1ccc(C(=O)Nc2cccc(Br)c2)cc1Nc1nc2ccccc2n1-c1cc(N)ncn1`, the results for the pIC50 in experiment [1] and in experiment [2] were 7.37 and less than 5.60, respectively.
Consider `Cc1ccc(NC(=O)c2cc(C(C)(C)C)nn2C)cc1Nc1nc2ccccc2n1-c1cc(N)ncn1`, for which the negative logarithm of the IC50 (pIC50) was 6.50 in experiment [1], 6.07 in experiment [2] and 5.14 in experiment [3].
For the compound `Cc1ccc(NC(=O)c2cccc(C(F)(F)F)c2)cc1Nc1nc2ccccc2n1-c1cc(Cl)ncn1`, the figures for the pIC50 in experiment [1], in experiment [2] and in experiment [3] were 5.93, 5.42 and 4.78, respectively.
